Read-outs that look alike come from different tables or passages of the source.
Assays:
[1] = HPLC of excrement for gnetin C and glycosides (Test Example 7); conditions: 14 weeks
Protocol: (§1) Seven mice were fed ad libitum with the test diet in which 0.5% of gnemonoside A separated and purified in Example 2 was included in the high-fat diet in an amount of 5 g/mouse/day for 14 consecutive weeks, and then 10 mg of their excrement was collected. The excrement thus collected and 10 mg of the excrement collected in Test example 4 were each added with methanol (acetonitrile aqueous solution), suspended by an ultrasonic treatment, and then filtered. The filtrate was washed with hexane and passed through an ODS cartridge, and 20 μL of the elute was applied to an HPLC apparatus.

[2] = mouse, in vivo
Protocol: as §1

Row | Compound | Fate in the intestinal tract ([1]; 0.5% in high-fat diet) | Peaks in HPLC chromatogram of the excrement ([1]; 0.5% of substance in high-fat diet, mice excrement) | Peaks in HPLC chromatogram of the excrement [2]
1 | gnemonoside A | hydrolyzed and changed to gnetin C in the intestinal tract | peaks of gnetin C and the monoglucuronide, but not a peak of gnemonoside A, C, or D | –
2 | Oc1ccc(/C=C/c2cc(O)c3c(c2)OC(c2ccc(O)cc2)C3c2cc(O)cc(O)c2)cc1 (stereo not drawn) [gnetin C] | – | – | peaks of gnetin C and monoglucuronic acid conjugate of gnetin C

From patent publication US20210169113A1, “COMPOSITION FOR IMPROVING INTESTINAL FLORA” (Hosoda SHC Co., Ltd., priority 2018, published 2021)
